Data on two molecules can be found in ChEMBL document CHEMBL5154725, “SAR evolution towards potent C-terminal carboxamide peptide inhibitors of Zika virus NS2B-NS3 protease” (Bioorg Med Chem, 2022).

Activity calls are given as the source filed them. The calls are words filed in the database; no cut-off is given here.

Data set [1] concerns Zika virus. Nature of the data set: Antiviral activity against ZIKV infected in African Green monkey Vero cells assessed as reduction in viral replication. It counts as functional, organism-based.
The test system of data set [2] is Zika virus. Nature of the data set: Inhibition of 6-His tagged-G4SG4 fused ZIKV NS2B (49 to 95 residues) R95A mutant-NS3 (1 to 170 residue) R29G mutant expressed in Escherichia coli BL21 (DE3) assessed as covalent adduct formation using Bz-Nle-K-RR-AMC substrate preincubated for 10 mins followed by substrate addition and measured after 30 mins by LC-HRMS analysis. The conditions noted are these: time 40.0 min.

The nature of data set [3]: Inhibition of 6-His tagged-G4SG4 fused ZIKV NS2B (49 to 95 residues) R95A mutant-NS3 (1 to 170 residue) R29G mutant expressed in Escherichia coli BL21 (DE3) using Bz-Nle-K-RR-AMC substrate preincubated for 10 mins followed by substrate addition and measured after 30 mins by fluorescence assay. Details: species or system Zika virus.
Data set [4] is described as follows: Binding affinity to 6-His tagged-G4SG4 fused ZIKV NS2B (49 to 95 residues) R95A mutant-NS3 (1 to 170 residue) R29G mutant expressed in Escherichia coli BL21 (DE3) by surface plasmon resonance assay. More on the design: species or system Zika virus.
Data set [5] in a line: Stability of compound assessed 6-His tagged-G4SG4 fused ZIKV NS2B (49 to 95 residues) R95A mutant-NS3 (1 to 170 residue) R29G mutant expressed in Escherichia coli BL21 (DE3) based degradation by LC-HRMS analysis. It is filed as ADME. The note with it: zika virus.
The target of another data set is Trypsin (Homo sapiens, UniProt P07477+P07478+P35030). Nature of the data set: Inhibition of human trypsin. It is filed as protein assay.
Data set [6] in a line: Inhibition of 6-His tagged-G4SG4 fused WNV NS2B (1423 to 1470 residues) -NS3 (1506 to 1689 residue) using pERTKR-AMC substrate preincubated for 10 mins followed by substrate addition and measured after 30 mins by fluorescence assay. More on the design: species or system West Nile virus.
The target in a further data set is Genome polyprotein (dengue virus type 2, UniProt P29990). Nature of the data set: Inhibition of 6-His tagged-G4SG4 fused DENV2 NS2B (1394 to 1440 residues) -NS3 (1476 to 1660 residue) expressed in Escherichia coli BL21 (DE3) using Bz-Nle-K-RR-AMC substrate preincubated for 10 mins followed by substrate addition and measured after 30 mins by fluorescence assay.
Genome polyprotein, sequence (P29990 1346-1475 limits assumed): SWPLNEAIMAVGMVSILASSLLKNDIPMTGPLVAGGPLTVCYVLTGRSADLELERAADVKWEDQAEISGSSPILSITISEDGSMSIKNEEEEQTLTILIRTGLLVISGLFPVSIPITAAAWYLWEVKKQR
Genome polyprotein, sequence (P29990 1476-2093 limits assumed): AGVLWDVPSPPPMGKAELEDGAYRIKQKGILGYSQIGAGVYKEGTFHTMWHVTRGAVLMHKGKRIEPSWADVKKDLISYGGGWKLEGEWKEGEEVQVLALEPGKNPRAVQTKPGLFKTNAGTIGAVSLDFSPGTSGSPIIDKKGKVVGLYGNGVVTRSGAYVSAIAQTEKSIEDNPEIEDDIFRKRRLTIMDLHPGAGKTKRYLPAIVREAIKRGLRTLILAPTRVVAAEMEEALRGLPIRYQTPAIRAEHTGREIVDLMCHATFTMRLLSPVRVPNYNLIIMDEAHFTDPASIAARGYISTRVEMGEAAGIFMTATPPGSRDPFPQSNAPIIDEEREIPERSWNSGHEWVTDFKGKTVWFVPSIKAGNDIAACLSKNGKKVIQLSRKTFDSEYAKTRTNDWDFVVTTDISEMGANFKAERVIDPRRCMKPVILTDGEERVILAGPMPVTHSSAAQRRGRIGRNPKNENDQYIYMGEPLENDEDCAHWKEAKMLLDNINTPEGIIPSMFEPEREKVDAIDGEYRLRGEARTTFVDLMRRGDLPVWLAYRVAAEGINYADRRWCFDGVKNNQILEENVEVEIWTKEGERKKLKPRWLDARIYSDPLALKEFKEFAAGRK

On to `CC(=O)N[C@@H](CCCCN)C(=O)N[C@@H](CCCCN)C(=O)N[C@H](C(=O)NCc1ccc(OCc2ccc(C(F)(F)F)cc2)cc1)c1ccccc1`, for which the EC50 in the data set on Zika virus [1] was found to be 11200 nM. Besides, the inhibition entry with Zika virus [2] was “Active”. Besides, in data set [3], the midpoint of inhibition, the IC50, lay at 41 nM and the Ki turned out to be 14 nM. In addition, in data set [4], the Kd was determined as 23 nM. Further, the Stability entry in data set [5] was “Stable”.
On to `CC(=O)N[C@@H](CCCCN)C(=O)N[C@@H](CCCCN)C(=O)N[C@H](C(=O)NCc1ccccc1)c1ccc(OCc2ccc(C(F)(F)F)cc2)cc1`, for which the IC50 on Trypsin is 2300 nM; in data set [6] it was 800 nM; in data set [3] it was 28 nM; on Genome polyprotein, 200 nM. Also, in the data set on Zika virus [1], the EC50 came to 8500 nM. Also, the inhibition result with Zika virus [2] is “Active”. For the same molecule, in data set [3], the Ki was 7 nM. In data set [4], this molecule had a Kd of 11 nM. In addition, the Stability entry in data set [5] is on record as “Stable”.
